Data taken from patent US20260152533A1, “COMBINATION INHIBITORS FOR TREATING FIBROSIS” (Memorial Sloan-Kettering Cancer Center, priority 2021, published 2026).

Assays:
[1] = tested on: pancreatic stellate cells (PSCs); assay: Western blot of PSCs; format: cell-based, mouse; details: PSCs, TGFβ
Description: PSCs were isolated from C57BL/6 mice by differential centrifugation as previously described^49 and their mesenchymal origin was validated by analyzing the expression of various mesenchymal and epithelial markers. MFBs were isolated from FVB/N mice by differential centrifugation as previously described^50. DB7 mouse breast cancer cells were obtained from Alexander Borowsky (University of California Davis Comprehensive Cancer Center, Sacramento, CA, USA) through an MTA to Ohio State University (OSU). KPC (Kras^LSL-G12D; Trp53^LSL-R172H; Pdx1-Cre) mouse PDAC cells were a gift from Scott Lowe (Memorial Sloan Kettering Cancer Center. (MSKCC)). All cells were cultured at 37° C. in 5% carbon dioxide (CO2) and 20% oxygen (O2) and were maintained in Dulbecco's Modified Eagles medium (DMEM) (25 mM D-glucose, 2 mM L-glutamine) supplemented with 10% fetal bovine serum (FBS) (Gemini), 100 units/ml penicillin and 100 μg/ml streptomycin. Primary PSC and MFB cells were kept in culture for no more than ten passages. Experiments with iCAFs and myCAFs were performed as previously described^29. In brief, qPSCs were generated by culturing PSCs in a dome of GFR Matrigel (Corning) in DMEM; iCAFs were generated by culturing PSCs in a dome of GFR Matrigel in DMEM conditioned by KPC cells for 48 h; myCAFs were generated by monolayer culture of PSCs. Differentiation was validated by analyzing the expression of iCAF/myCAF markers^29. […]
Lysates were generated by incubating cells or ground tumors in RIPA buffer (Millipore); […] of cleared lysate were analyzed by SDS-polyacrylamide gel electrophoresis (SDS-PAGE) as previously described^11. […] Quantification of band intensities of collagen I relative to […] or vinculin in tumor allograft experiments was performed with Image Lab software v6.0 (Bio-Rad).

[2] = tested on: pyruvate carboxylase (PC); assay: [3,4-13C]-Glc tracing in PSCs (PC activity); format: cell-based, mouse; details: low Gln (20%), TGFβ 48 hours (FIGS. 10J and 10K)
Procedure: Cells were plated in six-well cell culture plates at a concentration aimed to reach 0.5-1×10^6 cells at the time of harvest. For quantification of relative metabolite abundance, cells were cultured with glutamine-free DMEM containing different concentrations of L-glutamine and supplemented with 10% dialyzed FBS and in some experiments were treated with TGFβ for 48 hours. For the [U-^13C]and [3,4-^13C]glucose tracing experiments, cells were cultured as above, and in the last 8 hours media was replaced with DMEM without D-glucose and L-glutamine supplemented with 2 mM or 0.2 mM L-glutamine and 10 mM [U-^13C]or [3,4-^13C]D-glucose (Cambridge Isotope Laboratories) and 10% dialyzed FBS. […] For relative quantification of metabolites by gas chromatography-mass spectroscopy (GC-MS), cells were washed briefly with PBS, which was then fully aspirated and metabolism was quenched by immediately adding 1 mL of 80:20 methanol:water stored at −80° C. containing 20 μM deuterated 2-hydroxyglutarate (d5-2HG) as an internal standard. […]
GC-MS measurements were performed as described before^11. Ions used for quantification of metabolite levels were as follows: d5-2HG m/z 354; citrate m/z 465; alpha-ketoglutarate m/z 304; succinate m/z 247; fumarate m/z 245; malate m/z 335; aspartate m/z 232; hydroxyproline m/z 332; proline m/z 216; glutamate m/z 246; glutamine m/z 245; lactate m/z 219; pyruvate m/z 174. […]

For “TGFβ: transforming growth-factor beta; TGFβ-1 purchased from Peprotech”, the “collagen I production” value ([1]; 20% Gln, 48 hours) was “unable to proliferate and produce collagen I”, the GCN2 phosphorylation ([1]; low Gln (20%), 48 hours (FIG. 8J)) was “showed GCN2 phosphorylation” and the PC activity [2] was “suppressed”.
